This note sets out measurements from patent US11845751B2, “Triazolotriazine derivatives as A2A receptor antagonists” (ZHEJIANG VIMGREEN PHARMACEUTICALS, LTD., priority 2018, dated 2023).

pIC50: −log10 of the molar value.

The target of the first assay is T1, A2AR (hADORA2A-HEK293 cells) (Homo sapiens, UniProt P29274).
T1 construct: expressed in transfected cells; host or cells: HEK293 (hADORA2A-HEK293)
T1 sequence (P29274 whole entry): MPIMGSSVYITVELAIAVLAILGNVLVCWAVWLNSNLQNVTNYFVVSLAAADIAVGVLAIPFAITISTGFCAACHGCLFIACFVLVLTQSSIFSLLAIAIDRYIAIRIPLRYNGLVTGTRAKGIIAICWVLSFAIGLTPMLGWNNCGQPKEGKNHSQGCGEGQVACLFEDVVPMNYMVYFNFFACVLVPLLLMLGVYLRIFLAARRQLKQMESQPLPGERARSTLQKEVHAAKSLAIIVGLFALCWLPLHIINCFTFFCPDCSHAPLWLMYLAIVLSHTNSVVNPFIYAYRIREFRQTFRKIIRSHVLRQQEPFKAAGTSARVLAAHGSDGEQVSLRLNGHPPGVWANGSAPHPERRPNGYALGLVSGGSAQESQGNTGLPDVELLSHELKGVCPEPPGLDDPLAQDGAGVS
The assay can be described thus: functional cAMP production assay: NECA stimulation of cAMP production and its inhibition by A2AR antagonists. It is filed as cell-based.
Conditions: not given
The protocol: The antagonistic activities of the triazolotriazine derivatives of the present invention were measured in a functional cAMP production assay. The assay consists of NECA stimulation of cAMP production and its inhibition by A2AR antagonists in A2AR-expressing HEK293 cells (hADORA2A-HEK293). All cells were cultured in complete medium at 37° C. in 5% CO2. The cells were detached with pancreatin and collected at 200 g for 5 min. After resuspending the cells in fresh complete medium, the cell viability is counted using the trypan blue exclusion method. […] After the cells were diluted with Hank's buffered saline solution containing HEPES (5 mM), BSA stabilizer (0.1%) and […] Rolipram (10 μM), cells were loaded into white opaque 384-well plates (˜500 cells/well, 10 μl/well) and incubated with test compound at a suitable concentration range (11 concentrations) for 20 min at room temperature. Then the A2A receptor agonist NECA (final concentration=EC80, which was determined in the same experiment slightly earlier) was added to the sample and the mixture was incubated again for 30 min at 37° C. […] The inhibition rate (%) was calculated according to the following formula. The IC50 values were calculated from concentration-inhibition (%) curves after log transformation.
For orientation: pIC50 means the IC50 on a negative log10 scale, so that one unit is a factor of ten. Take `Nc1nc(NCCc2ccc(OCCN3CC3)cc2)nc2nc(-c3ccco3)nn12` [Example 124, N5-(4-(2-(Aziridin-1-yl)ethoxy)phenethyl)-2-(furan-2-yl)-[1,2,4]triazolo[1,5-a][1,3,5]triazine-5,7-diamine]: the pIC50 was 8.08.

The assay is the same for the next values; noted with them: A2AR-expressing HEK293 cells (hADORA2A-HEK293); NECA at EC80; TR-FRET cAMP readout; read-out: A2AR Potency (IC50, inhibition of NECA-stimulated cAMP production).
On to `COCCOCCOCCOCCOCCOCCOCCOc1ccc(CCNc2nc(N)n3nc(-c4ccco4)nc3n2)cc1` [Example 102, N5-(4-(2-(2-(2-(2-(2-(2-(2-Methoxyethoxy)ethoxy)ethoxy)ethoxy)ethoxy)ethoxy)ethoxy)-phenethyl)-2-(furan-2-yl)-[1,2,4]triazolo[1,5-a][1,3,5]triazine-5,7-diamine], for which the pIC50 was 7.72.

On to `COCCOCCOCCOCCOCCOCCOCCOCCOc1ccc(CCNc2nc(N)n3nc(-c4ccco4)nc3n2)cc1` [Example 109, N5-(4-(2-(2-(2-(2-(2-(2-(2-(2-Methoxyethoxy)ethoxy)ethoxy)ethoxy)ethoxy)ethoxy)ethoxy)-ethoxy)phenethyl)-2-(furan-2-yl)-[1,2,4]triazolo[1,5-a][1,3,5]triazine-5,7-diamine], for which the pIC50 was 7.26.

Consider `CN(C)CCCOc1ccc(CCNc2cc(N)n3nc(-c4ccco4)nc3c2)cc1` [Example 113, N^7-(4-(3-(Dimethylamino)propoxy)phenethyl)-2-(furan-2-yl)-[1,2,4]triazolo[1,5-a]pyridine-5,7-diamine], for which the pIC50 was 7.82.

For `COCCOCCOCCOCCOCCOCCOCCOCCOCCOc1ccc(CCNc2nc(N)n3nc(-c4ccco4)nc3n2)cc1` [Example 117, N5-(4-(2-(2-(2-(2-(2-(2-(2-(2-(2-Methoxyethoxy)ethoxy)ethoxy)ethoxy)ethoxy)ethoxy)-ethoxy)ethoxy)ethoxy)phenethyl)-2-(furan-2-yl)-[1,2,4]triazolo[1,5-a][1,3,5]triazine-5,7-diamine], the pIC50 is 7.42.

As to `CN1CCC(COc2ccc(CCNc3nc(N)n4nc(-c5ccco5)nc4n3)cc2)CC1` [Example 121, N5-(4-((1-Methylpiperidin-4-yl)methoxy)phenethyl)-2-(furan-2-yl)-[1,2,4]triazolo[1,5-a][1,3,5]triazine-5,7-diamine], the pIC50 is 7.85.

Take `Nc1nc(NCCc2ccc(OCCF)cc2)nc2nc(-c3ccco3)nn12` [Example 142, N5-(4-(2-Fluoroethoxy)phenethyl)-2-(furan-2-yl)-[1,2,4]triazolo[1,5-a][1,3,5]triazine-5,7-diamine]: the pIC50 is 8.09.

For `CN(C)[C@H]1CCN(CCOc2ccc(CCNc3nc(N)n4nc(-c5ccco5)nc4n3)cc2)C1` [Example 154, (S)-N5-(4-(2-(3-(Dimethylamino)pyrrolidin-1-yl)ethoxy)phenethyl)-2-(furan-2-yl)-[1,2,4]triazolo[1,5-a][1,3,5]triazine-5,7-diamine], the pIC50 was 7.60.

Take `CN(C)C1CN(CCOc2ccc(CCNc3nc(N)n4nc(-c5ccco5)nc4n3)cc2)C1` [Example 162, N5-(4-(2-(3-(Dimethylamino)azetidin-1-yl)ethoxy)phenethyl)-2-(furan-2-yl)-[1,2,4]triazolo[1,5-a][1,3,5]triazine-5,7-diamine]: the pIC50 is 7.76.

For `Nc1nc(NCCc2ccc(OCC(F)(F)F)cc2)nc2nc(-c3ccco3)nn12` [Example 207, N5-(4-(2,2,2-Trifluoroethoxy)phenethyl)-2-(furan-2-yl)-[1,2,4]triazolo[1,5-a][1,3,5]triazine-5,7-diamine], the pIC50 was 8.05.

Regarding `CN(C)[C@@H]1CCN(CCOc2ccc(CCNc3nc(N)n4nc(-c5ccco5)nc4n3)cc2)C1` [Example 214, N5-((R)-4-(2-(3-(Dimethylamino)pyrrolidin-1-yl)ethoxy)phenethyl)-2-(furan-2-yl)-[1,2,4]triazolo[1,5-a][1,3,5]triazine-5,7-diamine], the pIC50 was 7.45.

As to `Nc1nc(NCCc2ccc(NC(=O)CCN3CCCC3)cc2)nc2nc(-c3ccco3)nn12` [Example 226, N-(4-(2-((7-Amino-2-(furan-2-yl)-[1,2,4]triazolo[1,5-a][1,3,5]triazin-5-yl)amino)ethyl)-phenyl)-3-(pyrrolidin-1-yl)propanamide], the pIC50 was 7.70.

Turning to `CN1CCN(CCC(=O)Nc2ccc(CCNc3nc(N)n4nc(-c5ccco5)nc4n3)cc2)CC1` [Example 229, N-(4-(2-((7-Amino-2-(furan-2-yl)-[1,2,4]triazolo[1,5-a][1,3,5]triazin-5-yl)amino)ethyl)-phenyl)-3-(4-methylpiperazin-1-yl)propanamide], the pIC50 is 7.60.

On to `CN1CCC(C(=O)Nc2ccc(CCNc3nc(N)n4nc(-c5ccco5)nc4n3)cc2)CC1` [Example 241, N-(4-(2-((7-Amino-2-(furan-2-yl)-[1,2,4]triazolo[1,5-a][1,3,5]triazin-5-yl)amino)ethyl)-phenyl)-1-methylpiperidine-4-carboxamide], for which the pIC50 was 7.95.

Take `Nc1nc(NCCc2ccc(OCCOCCF)cc2)nc2nc(-c3ccco3)nn12` [Example 245, N5-(4-(2-(2-Fluoroethoxy)ethoxy)phenethyl)-2-(furan-2-yl)-[1,2,4]triazolo[1,5-a][1,3,5]triazine-5,7-diamine]: the pIC50 was 8.00.

For the molecule `CN(C)CCNc1ccc(CCNc2nc(N)n3nc(-c4ccco4)nc3n2)cc1` [Example 254, N5-(4-((2-(Dimethylamino)ethyl)amino)phenethyl)-2-(furan-2-yl)-[1,2,4]triazolo[1,5-a][1,3,5]triazine-5,7-diamine], the pIC50 was 7.71.

As for `Nc1nc(NCCc2ccc(NC(=O)Cc3ccncc3)cc2)nc2nc(-c3ccco3)nn12` [Example 276, N-(4-(2-((7-Amino-2-(furan-2-yl)-[1,2,4]triazolo[1,5-a][1,3,5]triazin-5-yl)amino)ethyl)-phenyl)-2-(pyridin-4-yl)acetamide], the pIC50 was 7.76.

As for `CN(CCOc1ccc(CCNc2nc(N)n3nc(-c4ccco4)nc3n2)cc1)Cc1cccnc1` [Example 284, 2-(Furan-2-yl)-N5-(4-(2-(methyl(pyridin-3-ylmethyl)amino)ethoxy)phenethyl)-[1,2,4]triazolo[1,5-a][1,3,5]triazine-5,7-diamine], the pIC50 was 7.49.

With `CN1CCCN(CCOc2ccc(CCNc3nc(N)n4nc(-c5ccco5)nc4n3)cc2)CC1` [Example 286, 2-(Furan-2-yl)-N5-(4-(2-(4-methyl-1,4-diazepan-1-yl)ethoxy)phenethyl)-[1,2,4]triazolo[1,5-a][1,3,5]triazine-5,7-diamine], the pIC50 is 7.48.

In the case of `Nc1nc(NCCc2ccccn2)nc2nc(-c3ccco3)nn12` [Example 302, 2-(Furan-2-yl)-N5-(2-(pyridin-2-yl)ethyl)-[1,2,4]triazolo[1,5-a][1,3,5]triazine-5,7-diamine], the pIC50 is 7.90.

In the case of `CN(C)Cc1ccc(CCNc2nc(N)n3nc(-c4ccco4)nc3n2)cc1` [Example 306, N5-(4-((Dimethylamino)methyl)phenethyl)-2-(furan-2-yl)-[1,2,4]triazolo[1,5-a][1,3,5]triazine-5,7-diamine], the pIC50 is 6.79.

As to `Nc1nc(NCCc2ccc(OCCN3CC[C@@H](F)C3)cc2)nc2nc(-c3ccco3)nn12` [Example 309, (R)-N5-(4-(2-(3-Fluoropyrrolidin-1-yl)ethoxy)phenethyl)-2-(furan-2-yl)-[1,2,4]triazolo[1,5-a][1,3,5]triazine-5,7-diamine], the pIC50 is 7.52.
